Assay results taken from US12390441B2, “Immunomodulating o-het/aryl azalides” (Zoetis Services LLC, priority 2020, dated 2025).

Assays:
Assay in all cases: Whole blood assay, LPS stimulation, MSD cytokine detection
IL-6 = assay type: cell-based; details: fresh whole bovine blood
TNF-α = assay type: cell-based; details: fresh whole bovine blood
Description: (§1) Compounds of the invention were evaluated against a positive control for their ability to inhibit LPS-induced IL-1p and TNF-α as an overall evaluation of relative potency and modulation of target pathways.
(§2) In the bovine whole blood in vitro screening assay the inhibition of TNFα as induced by stimulation by lipopolysaccharide (LPS) and as measured by half the maximal inhibitory concentration (IC50) is recognized as the primary biomarker of immunomodulation potency upon pretreatment with the compounds of the invention. IL-1β is a mediator of the inflammation response and is involved in a number of cellular activities including proliferation, differentiation and apoptosis. IL-1β is also released upon cellular stress or cytotoxicity or upon TLR stimulation. In the bovine whole blood assay the stimulation of IL-1β release upon increasing concentration of test compound is seen as a potential cellular toxicity signal as induced by the test compound. In order to estimate a therapeutic index from the in vitro assay a differential between the TNFα IC50 (immunomodulation potency) versus the perceived cellular toxicity concentration (IL-1β release or overstimulation) was utilized. […] As the in vitro assay index approaches 1 it is proposed that the balance between immunomodulation and cytotoxicity would be too narrow in order to achieve an efficacious dose in vivo.

IL-1β = assay type: cell-based, bovine; details: fresh whole bovine blood, LPS stimulation; drug concentration giving overstimulation (OS) of IL-1β
Description: as §1, §2

SMILES	IC50 (IL-6)	IC50 (TNF-α)	IL-1ß OS of LPS (IL-1β)
CC[C@H]1OC(=O)[C@H](C)[C@@H](O)[C@H](C)[C@@H](O[C@@H]2O[C@H](C)C[C@H](N(C)C(=O)N(C)c3ncccn3)[C@H]2Oc2ccccc2)[C@](C)(O)C[C@@H](C)CN(C)[C@H](C)[C@@H](O)[C@]1(C)O [Example C-22]	151 µM	94 µM	100 µM
CCCNC[C@]1(O)[C@H](C)O[C@@H](O[C@H]2[C@H](C)[C@@H](O[C@@H]3O[C@H](C)C[C@H](NC)[C@H]3Oc3ccccc3)[C@](C)(O)C[C@@H](C)CN(C)[C@H](C)[C@@H](O)[C@](C)(O)[C@@H](CC)OC(=O)[C@@H]2C)C[C@@]1(C)OC [Example E-152]	21 µM	23 µM	16 µM
CCCNC[C@]1(O)[C@H](C)O[C@@H](O[C@H]2[C@H](C)[C@@H](O[C@@H]3O[C@H](C)C[C@H](N(C)C(=O)N(C)c4ncccn4)[C@H]3Oc3ccccc3)[C@](C)(O)C[C@@H](C)CN[C@H](C)[C@@H](O)[C@](C)(O)[C@@H](CC)OC(=O)[C@@H]2C)C[C@@]1(C)OC [Example F-8]	167 µM	169 µM	40 µM
CC[C@H]1OC(=O)[C@H](C)[C@@H](O[C@H]2C[C@@](C)(OC)[C@](O)(CN(C)CCN(C)C)[C@H](C)O2)[C@H](C)[C@@H](O[C@@H]2O[C@H](C)C[C@H](NC)[C@H]2Oc2ccccc2)[C@](C)(O)C[C@@H](C)CN[C@H](C)[C@@H](O)[C@]1(C)O [Example E-128]	147 µM	100 µM	100 µM
CC[C@H]1OC(=O)[C@H](C)[C@@H](O)[C@H](C)[C@@H](O[C@@H]2O[C@H](C)C[C@H](N(C)C(=O)N3CCOc4ccccc43)[C@H]2Oc2ccccc2)[C@](C)(O)C[C@@H](C)CN(C)[C@H](C)[C@@H](O)[C@]1(C)O [Example D-2]	148 µM	40 µM	16 µM
CC[C@H]1OC(=O)[C@H](C)[C@@H](O[C@H]2C[C@@](C)(OC)[C@@H](O)[C@H](C)O2)[C@H](C)[C@@H](O[C@@H]2O[C@H](C)C[C@H](N(C)C)[C@H]2Oc2ccc(F)cc2)[C@](C)(O)C[C@@H](C)CN(C)[C@H](C)[C@@H](O)[C@]1(C)O [Example A-23]	50 µM	5 µM	6 µM
CC[C@H]1OC(=O)[C@H](C)[C@@H](O[C@H]2C[C@@](C)(OC)[C@](O)(CNCCCOC)[C@H](C)O2)[C@H](C)[C@@H](O[C@@H]2O[C@H](C)C[C@H](N(C)C)[C@H]2Oc2ccccc2)[C@](C)(O)C[C@@H](C)CN[C@H](C)[C@@H](O)[C@]1(C)O [Example E-146]	45 µM	12 µM	40 µM
CC[C@H]1OC(=O)[C@H](C)[C@@H](O[C@H]2C[C@@](C)(OC)[C@](O)(CNCC3CC3)[C@H](C)O2)[C@H](C)[C@@H](O[C@@H]2O[C@H](C)C[C@H](N(C)C)[C@H]2Oc2ccc(F)cc2)[C@](C)(O)C[C@@H](C)CN[C@H](C)[C@@H](O)[C@]1(C)O [Example E-37]	17 µM	6 µM	16 µM
CC[C@H]1OC(=O)[C@H](C)[C@@H](O[C@H]2C[C@@](C)(OC)[C@](O)(CNCC3CC3)[C@H](C)O2)[C@H](C)[C@@H](O[C@@H]2O[C@H](C)C[C@H](NC)[C@H]2Oc2ccccc2)[C@](C)(O)C[C@@H](C)CN[C@H](C)[C@@H](O)[C@]1(C)O [Example E-132]	60 µM	31 µM	100 µM
CCCNC[C@]1(O)[C@H](C)O[C@@H](O[C@H]2[C@H](C)[C@@H](O[C@@H]3O[C@H](C)C[C@H](N(C)Cc4cccnc4)[C@H]3Oc3ccccc3)[C@](C)(O)C[C@@H](C)CN[C@H](C)[C@@H](O)[C@](C)(O)[C@@H](CC)OC(=O)[C@@H]2C)C[C@@]1(C)OC [Example E-149]	6 µM	10 µM	2 µM
CC[C@H]1OC(=O)[C@H](C)[C@@H](O[C@H]2C[C@@](C)(OC)[C@](O)(CN(C)CCN(C)C)[C@H](C)O2)[C@H](C)[C@@H](O[C@@H]2O[C@H](C)C[C@H](N(C)C)[C@H]2Oc2ccccc2)[C@](C)(O)C[C@@H](C)CN[C@H](C)[C@@H](O)[C@]1(C)O [Example E-143]	86 µM	34 µM	40 µM
CC[C@H]1OC(=O)[C@H](C)[C@@H](O)[C@H](C)[C@@H](O[C@@H]2O[C@H](C)C[C@H](N(C)C(=O)N(C)c3ccccc3)[C@H]2Oc2cc(F)c(OC)c(F)c2)[C@](C)(O)C[C@@H](C)CN[C@H](C)[C@@H](O)[C@]1(C)O [Example C-42]	12 µM	5 µM	16 µM

Now from value to compound, other results behind:

IC50 (IL-6)	IC50 (TNF-α)	SMILES	IL-1ß OS of LPS (IL-1β)
11 µM	3 µM	CC[C@H]1OC(=O)[C@H](C)[C@@H](O[C@H]2C[C@@](C)(OC)[C@@H](O)[C@H](C)O2)[C@H](C)[C@@H](O[C@@H]2O[C@H](C)C[C@H](N(C)C)[C@H]2Oc2cnc3ccccc3c2)[C@](C)(O)C[C@@H](C)CN(C)[C@H](C)[C@@H](O)[C@]1(C)O [Example A-28]	16 µM
32 µM	21 µM	CC[C@H]1OC(=O)[C@H](C)[C@@H](O)[C@H](C)[C@@H](O[C@@H]2O[C@H](C)C[C@H](N(C)C(=O)N(C)c3ccc(C#N)cc3)[C@H]2Oc2ccccc2Cl)[C@](C)(O)C[C@@H](C)CN[C@H](C)[C@@H](O)[C@]1(C)O [Example C-43]	16 µM
19 µM	7 µM	CC[C@H]1OC(=O)[C@H](C)[C@@H](O[C@H]2C[C@@](C)(OC)[C@](O)(CNC3CCC3)[C@H](C)O2)[C@H](C)[C@@H](O[C@@H]2O[C@H](C)C[C@H](N(C)C)[C@H]2Oc2ccccc2)[C@](C)(O)C[C@@H](C)CN[C@H](C)[C@@H](O)[C@]1(C)O [Example E-141]	16 µM
11 µM	6 µM	CC[C@H]1OC(=O)[C@H](C)[C@@H](O[C@H]2C[C@@](C)(OC)[C@](O)(CNC(C)C)[C@H](C)O2)[C@H](C)[C@@H](O[C@@H]2O[C@H](C)C[C@H](N(C)C)[C@H]2Oc2ccc(F)cc2)[C@](C)(O)C[C@@H](C)CN[C@H](C)[C@@H](O)[C@]1(C)O [Example E-117]	16 µM
175 µM	125 µM	CCCNC[C@]1(O)[C@H](C)O[C@@H](O[C@H]2[C@H](C)[C@@H](O[C@@H]3O[C@H](C)C[C@H](NC)[C@H]3Oc3ccc(C(N)=O)cc3)[C@](C)(O)C[C@@H](C)CN[C@H](C)[C@@H](O)[C@](C)(O)[C@@H](CC)OC(=O)[C@@H]2C)C[C@@]1(C)OC [Example E-110]	>500 µM
< 1 µM	5 µM	CCOc1cccc(O[C@H]2[C@H](O[C@@H]3[C@@H](C)[C@H](O)[C@@H](C)C(=O)O[C@H](CC)[C@@](C)(O)[C@H](O)[C@@H](C)NC[C@H](C)C[C@@]3(C)O)O[C@H](C)C[C@@H]2N(C)C(=O)N(C)c2ccccc2)c1 [Example C-37]	16 µM
24 µM	19 µM	CC[C@H]1OC(=O)[C@H](C)[C@@H](O[C@H]2C[C@@](C)(OC)[C@@H](O)[C@H](C)O2)[C@H](C)[C@@H](O[C@@H]2O[C@H](C)C[C@H](N(C)C)[C@H]2Oc2ccc3ccncc3c2)[C@](C)(O)C[C@@H](C)CN(C)[C@H](C)[C@@H](O)[C@]1(C)O [Example A-24]	40 µM
9 µM	7 µM	CC[C@H]1OC(=O)[C@H](C)[C@@H](O[C@H]2C[C@@](C)(OC)[C@@H](O)[C@H](C)O2)[C@H](C)[C@@H](O[C@@H]2O[C@H](C)C[C@H](NC)[C@H]2Oc2cnc(Cl)cc2C)[C@](C)(O)C[C@@H](C)CN(C)[C@H](C)[C@@H](O)[C@]1(C)O [Example A-29]	10 µM
42 µM	17 µM	CC[C@H]1OC(=O)[C@H](C)[C@@H](O[C@H]2C[C@@](C)(OC)[C@](O)(CNCCOC)[C@H](C)O2)[C@H](C)[C@@H](O[C@@H]2O[C@H](C)C[C@H](N(C)C)[C@H]2Oc2ccccc2)[C@](C)(O)C[C@@H](C)CN[C@H](C)[C@@H](O)[C@]1(C)O [Example E-145]	>250 µM
8 µM	5 µM	CC[C@H]1OC(=O)[C@H](C)[C@@H](O[C@H]2C[C@@](C)(OC)[C@](O)(CNC3CC3)[C@H](C)O2)[C@H](C)[C@@H](O[C@@H]2O[C@H](C)C[C@H](NC)[C@H]2Oc2ccccc2)[C@](C)(O)C[C@@H](C)CN[C@H](C)[C@@H](O)[C@]1(C)O [Example E-125]	16 µM
10 µM	2 µM	CCOc1cccc(O[C@H]2[C@H](O[C@@H]3[C@@H](C)[C@H](O)[C@@H](C)C(=O)O[C@H](CC)[C@@](C)(O)[C@H](O)[C@@H](C)NC[C@H](C)C[C@@]3(C)O)O[C@H](C)C[C@@H]2N(C)C(=O)N(C)c2ccc(N(C)C)cc2)c1 [Example C-36]	16 µM
11 µM	8 µM	CC[C@H]1OC(=O)[C@H](C)[C@@H](O[C@H]2C[C@@](C)(OC)[C@](O)(CNC3CCOCC3)[C@H](C)O2)[C@H](C)[C@@H](O[C@@H]2O[C@H](C)C[C@H](N(C)C)[C@H]2Oc2ccccc2)[C@](C)(O)C[C@@H](C)CN[C@H](C)[C@@H](O)[C@]1(C)O [Example E-120]	16 µM
